Measured values from patent US5631247A, “Compounds and compositions with nitrogen-containing non-basic side chains” (Eli Lilly and Company, priority 1996, dated 1997).

Assays:
[1] = test system: uterus; experiment: Wet uterine weight in ovariectomized rats (four day dosing); type: in vivo, female Sprague Dawley rats; conditions: for change in vivo at 0.1 mg/kg / change in vivo at 1 mg/kg / change in vivo at 10 mg/kg: Rattus norvegicus, po, 96 h, daily for 4 days, increase vs OVX control, read-out: Uterine Weight (% inc. OVX)
Description: (§1) In the examples illustrating the methods, a post-menopausal model was used in which effects of different treatments upon various biological parameters were determined, including serum cholesterol concentration, uterine weight, eosinophil peroxidase activity, MCF-7 cell proliferation, and bone density.
(§2) Animals were dosed daily for 4 days. […] A blood sample was collected by cardiac puncture.
(§3) Data presented in Table 1 below show comparative results among control ovariectomized rats, rats treated with EE2, and rats treated with certain compounds of the present invention. […] This uterine response to estrogen is well recognized in the art.
(§4) The data presented in Table 1 reflect the response of 5 to 6 rats per treatment.

[2] = test system: eosinophil peroxidase; experiment: Uterine eosinophil peroxidase (EPO) assay in ovariectomized rats (four day dosing); type: in vivo, female Sprague Dawley rats; parameters: Uterine EPO (Vmax): unit not given here; conditions: oral, OVX rats; for Uterine EPO (Vmax): daily for 4 days
Description: as §1, §2, §4

[3] = test system: MCF-7 breast adenocarcinoma cells; experiment: MCF-7 proliferation assay (tritiated thymidine); type: cell-based; conditions: Homo sapiens, MCF7, 48 hours with drug, read-out: ED50 (the source's name)
Description: MCF-7 breast adenocarcinoma cells (ATCC HTB 22) were maintained in MEM (minimal essential medium, phenol red-free, Sigma, St. Louis, Mo.) supplemented with 10% fetal bovine serum (FBS) (V/V), L-glutamine (2 mM), sodium pyruvate (1 mM), HEPES {(N-[2-hydroxyethyl]piperazine-N'-[2-ethanesulfonic acid]10 mM}, non-essential amino acids and bovine insulin (1 μg/ml) (maintenance medium). Ten days prior to assay, MCF-7 cells were switched to maintenance medium supplemented with 10% dextrancoated charcoal stripped fetal bovine serum (DCC-FBS) assay medium) in place of 10% FBS to deplete internal stores of steroids. MCF-7 cells were removed from maintenance flasks using cell dissociation medium (Ca++/Mg++ free HBSS (phenol red-free) supplemented with 10 mM HEPES and 2 mM EDTA). Cells were washed twice with assay medium and adjusted to 80,000 cells/mi. Approximately […] (8,000 cells) were added to flat-bottom microculture wells (Costar 3596) and incubated at 37° C. in a 5% CO2 humidified incubator for 48 hours to allow for cell adherence and equilibration after transfer. Serial dilutions of drugs or DMSO as a diluent control were prepared in assay medium and […] to triplicate microcultures followed by 50 ml assay medium for a final volume of […]. After an additional 48 hours at 37° C. in a 5% CO2 humidified incubator, microcultures were pulsed with tritiated thymidine (1 uCi/well) for 4 hours. Cultures were terminated by freezing at -70° C. for 24 hours followed by thawing and harvesting of microcultures. Samples were counted by liquid scintillation. Results in Table 3 below show the ED50 for certain compounds of the present invention.

[4] = test system: serum cholesterol; experiment: Serum cholesterol in ovariectomized rats (post-menopausal rat model, four day dosing); type: in vivo, female Sprague Dawley rats; conditions: OVX rats, oral, 4 days; EE2 at 0.1 mg/Kg/day
Description: as §1, §2
Blood samples were allowed to clot at room temperature for 2 hours, and serum was obtained following centrifugation for 10 minutes at 3000 rpm. Serum cholesterol was determined using a Boshringer Mannheim Diagnostics high performance cholesterol assay. Briefly the cholesterol was oxidized to cholest-4-en-3-one and hydrogen peroxide. The hydrogen peroxide was then reacted with phenol and 4-aminophenazone in the presence of peroxidase to produce a p-quinone imine dye, which was read spectrophotemetrically at 500 nm. Cholesterol concentration was then calculated against a standard curve. The entire assay was automated using a Biomek Automated Workstation.
as §3, §4

[5] = test system: tibia; experiment: Bone density assay (35 day dosing, tibia, single photon absorptiometry); type: in vivo, female Sprague Dawley rats; conditions: OVX rats, oral in 20% hydroxypropyl β-cyclodextrin, daily for 35 days
Description: Following the General Preparation procedure described above, the rats were treated daily for 35 days (6 rats per treatment group) and sacrificed by decapitation on the 36th day. The 35 day time period was sufficient to allow maximal effect on bone density, measured as described herein. At the time of sacrifice, the uteri were removed, dissected free of extraneous tissue, and the fluid contents were expelled before determination of wet weight in order to confirm estrogen deficiency associated with complete ovariectomy. […] The uteri were then placed in 10% neutral buffered formalin to allow for subsequent histological analysis. The right tibias were excised and scanned at the distal metaphysis 1 mm from the patellar groove with single photon absorptiometry. Results of the densitometer measurements represent a calculation of bone density as a function of the bone mineral content and bone width. In accordance with the procedures outlined above, compounds of the present invention and EE2 in 20% hydroxypropyl β-cyclodextrin were orally administered to test animals.

Structure (SMILES) | change in vivo at 0.1 mg/kg [1] [%] | change in vivo at 1 mg/kg [1] [%] | change in vivo at 10 mg/kg [1] [%] | Uterine EPO (Vmax) ([2]; 0.1 mg/kg) | Uterine EPO (Vmax) ([2]; 1 mg/kg) | IC50 [3] [nM] | Uterine EPO (Vmax) ([2]; 10 mg/kg) | effect on uterine weight (in words) ([1]; OVX rats, oral, 4 days, EE2 at 0.1 mg/Kg/day) | effect on serum cholesterol (in words) [4] | eosinophil infiltration into the uterus (in words) ([2]; 4 days, by eosinophil peroxidase activity) | effect on bone loss / tibia density (in words) [5]
CC(C#N)Oc1ccc(C(=O)c2c(-c3ccc(O)cc3)sc3cc(O)ccc23)cc1 (stereo not shown) [Compound 16] | 0.7 | 27.4 | 99.2 | 2.3 | 3.9 | 0.02 |  |  |  |  | 
O=C(NCCOc1ccc(C(=O)c2c(-c3ccc(O)cc3)sc3cc(O)ccc23)cc1)c1ccccc1 [Compound 18] | 16.1 | 25.7 | 12.6 | 3.2 | 3.6 | 500 | 3.6 |  |  |  | 
CC(=O)N(CCOc1ccc(C(=O)c2c(-c3ccc(O)cc3)sc3cc(O)ccc23)cc1)C1CCCCC1 [Compound 19] | 7 | -25.5 | 47 | 5.4 | 3.7 | 0.1 | 29.3 |  |  |  | 
O=C(NCCOc1ccc(C(=O)c2c(-c3ccc(O)cc3)sc3cc(O)ccc23)cc1)NC1CCCCC1 [Compound 20] | -29.9 | -27.4 | -32.7 | 3.0 | 2.5 | 0.1 | 2.9 |  |  |  | 
O=C(c1ccc(OCCNC(=O)C2CCCCC2)cc1)c1c(-c2ccc(O)cc2)sc2cc(O)ccc12 [Compound 21] | -5.5 | -11.5 | 8.6 | 3.1 | 2.6 |  | 2.4 |  |  |  | 
CC(C)(C)C(=O)N1CCCCC1COc1ccc(C(=O)c2c(-c3ccc(O)cc3)sc3cc(O)ccc23)cc1 (stereo not shown) [Compound 22] | 1.9 | 19.6 | 46.9 | 3.5 | 20.0 | 0.01 | 69.5 |  |  |  | 
CC(C)(C)C(=O)N1CCC(Oc2ccc(C(=O)c3c(-c4ccc(O)cc4)sc4cc(O)ccc34)cc2)CC1 [Compound 23] | -4.3 | 0.8 | 22.3 | 1.6 | 3.8 | 4 | 6.7 |  |  |  | 
CC(=O)NCCOc1ccc(C(=O)c2c(-c3ccc(O)cc3)sc3cc(O)ccc23)cc1 [Compound 26] | -17.5 | -28.8 | 25.8 | 1.3 | 0.7 |  |  |  |  |  | 
C#C[C@]1(O)CC[C@H]2[C@@H]3CCc4cc(O)ccc4[C@H]3CC[C@@]21C [ethynyl estradiol, 17α-Ethynyl estradiol, reference compound] | 235 |  |  | 120.0 |  |  |  | substantially greater than the uterine weight of ovariectomized test animals | caused a decrease in serum cholesterol | caused a substantial, expected increase in eosinophil infiltration | prevented this loss
